Patent publication US20250129331A1, “MEDIUM COMPOSITION FOR CULTURE OF EXTRAEMBRYONIC ENDODERM STEM CELLS” (SEOUL NATIONAL UNIVERSITY R&DB FOUNDATION, priority 2023, published 2025)
Entries after “also recorded” stand apart in the source; their conditions may differ.

Legend:
Format in all cases: cell-based, pig
[1] = system: porcine XEN cells; assay: Withdrawal of signaling molecules or supplements from porcine XEN cell medium (morphology, AP staining, GATA6 ICC); settings: for colony morphology / proliferation on withdrawal of the factor: factor withdrawn from medium with B27, CHIR, FGF2, LIF, Act A, FIG. 3a; for AP staining and GATA6 expression on withdrawal of the factor: factor withdrawn, FIG. 3b, 3c
Procedure: Before staining, all cell samples were pre-cultured at 4° C. for 10 minutes and fixed with 4% paraformaldehyde for 15 minutes. After washing with Dulbecco's Phosphate Buffered Saline (DPBS) (Welgene), the fixed cells were stained with a buffer solution containing nitro blue tetrazolium chloride and 5-bromo-4-chloro-3-indolyl phosphate toluidine salt stock solution (Roche; Basel, Switzerland) at room temperature for 30 minutes. Stained cells were observed under an inverted microscope.
For immunostaining, the cells were fixed in 4% (w/v) paraformaldehyde. After washing with Dulbecco's Phosphate Buffered Saline (DPBS), the fixed cells were treated with 0.2% Triton-X100 (Sigma-Aldrich) at 4° C. for 2 hours. The cells were then treated with Dulbecco's Phosphate Buffered Saline (DPBS) containing 10% (v/v) goat or donkey serum for 1 hour to prevent non-specific binding. Serum-treated cells were cultured with primary antibodies at 4° C. for 24 hours. The primary antibodies used were as follows: rabbit anti-SOX2 (1:200, Millipore; AB5603), rabbit anti-NANOG (1:200, PeproTech; Rocky Hill, NJ, USA; 500-P236), chicken anti-OCT4 (1:100, Abcam; Cambridge, UK; ab134218), goose anti-GATA6 (15 μg/mL; R&D systems; AF1700), goose anti-SOX17 (1:200, R&D systems; AF1924), and rabbit anti-GATA4 (1:200, Abcam; ab84593). After incubation with primary antibodies, the cells were treated with Alexa Fluor-conjugated secondary antibodies at 4° C. for 24 hours. Nuclei were stained with Hoechst 33342 (Molecular Probes; Eugene, OR, USA). Images of stained cells were taken using a TE2000-U inverted fluorescence microscope (Nikon; Tokyo, Japan).
FIGS. 3a, 3b and 3c show changes in the withdrawal of signaling molecules or supplements for XEN cells.
In order to optimize the culture system of porcine XEN cells, B27 supplement, CHIR, FGF2, LIF or Act A was withdrawn from the medium during maintenance, and essential growth factors and signaling molecules were identified. Colonies were morphologically analyzed (FIG. 3a). […] In order to verify the responsiveness to these factors, AP staining and ICC for GATA6, which is a representative XEN cell marker, were performed to support the morphological analysis results (FIGS. 3b and 3c).

[2] = system: porcine XEN cells; assay: Culture of porcine XEN cells under various concentrations of essential factors (colony number, qPCR); settings: for concentration range appropriate for XEN cell culture: 7 days, colony number and qPCR of GATA6, SALL4, SPARC
Procedure: Total RNA was extracted using TRIzol reagent (Invitrogen; Carlsbad, USA) and cDNA was synthesized using High-Capacity RNA-to-cDNA Kit (Applied Biosystems; Waltham, MA, USA). cDNA was amplified using the primer sets listed in Table 1 below and PowerSYBR® Green PCR Master Mix (Applied Biosystems).
In addition, in order to fine-tune the culture system, porcine XEN cells were cultured under various concentrations of essential factors including FGF2, LIF and CHIR99021.

[3] = system: porcine XEN cells; assay: Screening of serum-free culture conditions (signaling molecules, KSR, B27) for porcine XEN cells; settings: FIG. 2a
Procedure: Porcine XEN cells were cultured under various conditions. Each of six fetal bovine serum (FBS) (three different batches purchased from Hyclone, Biowest, TCB and Genedepot) was applied to maintain porcine XEN cells. In addition, several signaling molecules and supplements were added to the basal medium supplemented with 15% (v/v), 10% (v/v) or 5% (v/v) knockout serum replacement (KSR) (Gibco; Gaithersburg, MD, USA) and tested. Factors tested were fibroblast growth factor 2 (FGF2) (R&D Systems; Minneapolis, MN, USA), human recombinant leukemia inhibitory factor (hrLIF) (Millipore; MA, USA), 5 ng/ml activin A (Activin A; R&D Systems), CHIR99021 (Cayman chemical; Ann Arbor, MI, USA), which is a GSK-3B inhibitor, and 1×B27 supplement (Gibco). The basal medium was a DMEM/F12 based medium, which consisted of 1× Glutamax, 0.1 mM β-mercaptoethanol and 1× antibiotic-antimycotic (all of which are manufactured by Gibco). The medium was changed every 24 hours and cultured under conditions of 5% CO2, 5% O2 and 38° C.
The present inventors performed screening of various factors in a DMEM/F12-based KSR-containing medium, which is commonly used for a serum-free medium in stem cells.

| Molecule | colony morphology / proliferation on withdrawal of the factor [1] | AP staining and GATA6 expression on withdrawal of the factor [1] | concentration range appropriate for XEN cell culture [2] | number of XEN colonies ([2]; low concentration of the factor, FIG. 4a, 4b) | doubling time ([3]; DMEM/F12-based KSR-containing medium, factor alone) | proliferation / growth of XEN cells ([3]; DMEM/F12-based KSR-containing serum-free medium, 2b) | self-renewal of porcine XEN cells ([1]; high concentration, control versus Act A withdrawn) |
| --- | --- | --- | --- | --- | --- | --- | --- |
| LIF: human recombinant leukemia inhibitory factor (hrLIF) (Millipore) | cell proliferation was inhibited | detected locally; also recorded: intense GATA6 expression only in the colony center | 0.1 to 20 ng/mL | – | – | – | – |
| FGF2: fibroblast growth factor 2 (FGF2) (R&D Systems) | no colonies after 4 days | detected locally | 10 to 100 ng/mL | few colonies were detected | prolonged | insufficient to proliferate XEN cells | – |
| Cc1c[nH]c(-c2cnc(NCCNc3ccc(C#N)cn3)nc2-c2ccc(Cl)cc2Cl)n1 [CHIR99021, reference compound] | colony boundaries collapsed and cell density within colonies decreased | detected locally | 0.5 to 4.5 µM | – | – | – | – |
| Act A: activin A (R&D Systems) (protein, UniProt P08476 311-426, looked up, Inhibin beta A chain) Inhibin beta A chain: GLECDGKVNICCKKQFFVSFKDIGWNDWIIAPSGYHANYCEGECPSHIAGTSGSSLSFHSTVINHYRMRGHSPFANLKSCCVPTKLRPMSMLYYDDGQNIIKKDIQNMIVEECGCS | – | evenly positive | – | – | – | – | inhibits the self-renewal |
